From patent US12024571B2, “Anti-erythropoietin receptor peptide” (Epo-Med Inc., priority 2018, dated 2024)
Bridge positions count the residues as written; N and C are the ends. Square brackets hold non-standard residues; d marks the D form. Peptide text beside a SMILES is read from it. * marks the point of attachment. Ala(benzothiazol-2-yl) = N[C@@H](Cc1nc2ccccc2s1)C(=O)O; Phe(3,4-F2) = N[C@@H](Cc1ccc(F)c(F)c1)C(=O)O; Phe(3-Cl) = N[C@@H](Cc1cccc(Cl)c1)C(=O)O; Phe(4-Cl) = N[C@@H](Cc1ccc(Cl)cc1)C(=O)O; Phe(4-F) = N[C@@H](Cc1ccc(F)cc1)C(=O)O; Propionyl = CCC(=O)*

Tests used:
[1] = tested on: human pancreatic cancer derived AsPC-1 cells; experiment: AsPC-1 cell proliferation, WST assay; format: cell-based; conditions: 72 hours
Procedure: Human pancreatic cancer derived AsPC-1 cells (ECACC, 96020930) were passaged (twice/week) under the condition of 37° C. and 5% CO2-95% air using an RPMI-1640 medium (Sigma, R8758-500 ML) comprising 10% fetal bovine serum (biowest, S182H-500) and 1 mM sodium pyruvate (gibco, 11360-070). The AsPC-1 cells were collected from a culture dish using 0.05% trypsin-0.02% EDTA solution (Sigma, T4174-100 ML). The cells were suspended in the medium and then seeded on a 96-well microplate (3×10^3/0.05 mL/well). After culturing the cells overnight, a medium comprising the test compounds (total of 43 compounds, final concentration of 150 μM) was added (0.05 mL/well, 3 wells/test compound). After 72 hours, the cell proliferation capability for each well was measured by a WST assay (DOJINDO LABORATORIES, Cell Counting Kit-8), and the inhibition ratio for each test compound against the control (test compound-free well) was calculated.
A WST assay is a viable cell count measuring method, which uses water-soluble tetrazolium salt WST-8 as a coloring reagent and uses water-soluble formazan generated by reduction of WST-8 as an indicator of viable cell count. NADH produced by a dehydrogenase in a cell converts WST-8 to water-soluble formazan. Since the generated water-soluble formazan has the maximum absorbance at about 450 nm, the viable cell count is indicated by measuring the absorbance at such a wavelength region.
Human pancreatic cancer derived AsPC-1 cells (ECACC, 96020930) were cultured, collected, and seeded on a 96-well microplate (3×10^3/0.05 mL/well) in the same manner as Example 3. After culturing the cells overnight, a medium comprising the test compounds (10, 30, or 100 μM) was added (0.05 mL/well, 3 wells/test compound). After 72 hours, the cell proliferation capability for each well was measured by a WST assay (DOJINDO LABORATORIES, Cell Counting Kit-8), and the inhibition ratio for each test compound against the control (test compound-free well) was computed.

[2] = tested on: human T cell leukemia derived ATL-2 cells; experiment: ATL-2 cell proliferation, WST assay; format: cell-based; conditions: 150 μM, 72 hours, FIG. 39
Procedure: Human T cell leukemia derived ATL-2 cells (provided by Dr. Maeda at the Kyoto University) were passaged (twice/week) under the condition of 37° C. and 5% CO2-95% air using an RPMI-1640 medium (Sigma, R8758-500 mL) comprising 10% fetal bovine serum (biowest, S182H-500). The ATL-2 cells were collected from a culture flask. The cells were suspended in the medium and then seeded on a 96-well microplate (3×10^3/0.05 mL/well). After culturing the cells overnight, a medium comprising the test compounds (total of 32 compounds, final concentration of 150 μM) was added (0.05 mL/well, 3 wells/test compound). After 72 hours, the cell proliferation capability for each well was measured by a WST assay (DOJINDO LABORATORIES, Cell Counting Kit-8), and the inhibition ratio for each test compound against the control (test compound-free well) was calculated.

[3] = tested on: human pancreatic cancer derived AsPC-1 cells; experiment: Tumor growth in AsPC-1 cancer-bearing nude mouse model; format: in vivo; conditions: intraperitoneal, 3 times daily, total 0.2 mg/day, 3 times a week for 2 weeks; FIG. 40
Procedure: Human pancreatic cancer derived AsPC-1 cells (ECACC, 96020930) were cultured and collected in the same manner as Example 3, suspended in the RPMI-1640 medium described above comprising 10% Matrigel (BD Bioscience, 354234), and transplanted subcutaneously to the right side on the back of a 6-week-old male nude mouse (SLC, BALB/cSlc-nu/nu) (5×10^6/0.1 mL/mouse). The length (L) and width (W) of the tumor were measured using a digital caliper. When the tumor volume (V) calculated from the formula V=L×W^2/2 reached about 150 to 200 mm^3, the mice were separated into groups and administered with test compounds (total of 8 compounds including GT-11263). Saline was administered to a control group. The compounds were administered intraperitoneally (0.1 mL/mouse, 3 to 5 mice/test compound) 3 times daily (one hour interval, a total of 0.2 mg/day), 3 times a week for 2 weeks. The tumor size and body weight were measured twice a week to monitor the status of tumor growth and the effect of the administration of test compounds.
In the same manner as Example 5, human pancreatic cancer derived AsPC-1 cells were transplanted subcutaneously to the right side on the back of a 6-week-old male nude mouse (SLC, BALB/cSlc-nu/nu) (5×10^6/0.1 mL/mouse). The length (L) and width (W) of the tumor were measured using a digital caliper. When the tumor volume (V) calculated from the formula V=L×W^2/2 reached about 150 to 200 mm^3, the mice were separated into groups and administered with test compounds (GT-11269, GT-11309, and GT-11350). Saline was administered to a control group. The compounds were administered intraperitoneally (0.1 mL/mouse, 5 mice/test compound) 3 times daily (one hour interval, a total of 0.5 mg/day), twice a week for 4 weeks. The tumor size and body weight were measured twice a week to monitor the effect of the administration of test compounds (FIG. 45).
(§1) In the same manner as Example 5, human pancreatic cancer derived AsPC-1 cells were transplanted subcutaneously to the right side on the back of a 6-week-old male nude mouse (SLC, BALB/cSlc-nu/nu), and when the tumor volume (V) reached about 150 to 200 mm^3, the mice were separated into groups and administered with test compounds (GT-11350). Saline was administered to a control group. The compounds were administered intraperitoneally (0.1 mL/mouse) 3 times daily (one hour interval, a total of 0.1 mg, 0.2 mg, or 0.4 mg/day), twice a week for 4 weeks. The tumor size and body weight were measured twice a week to monitor the effect of the dose of test compounds (FIG. 49).
as §1, with “of” for “of 0.1 mg,”, “mg/day)” for “mg,”, “once daily (0.2” for “0.4”, “administration” for “dose”, “compounds.” for “compounds (FIG. 49).”

[4] = tested on: human liver cancer derived HepG2 cells; experiment: Lethal effect of synthetic peptides on HepG2 cells (Trypan blue positive cell count); format: cell-based; conditions: 120, 60, 30 or 15 μM, 24 hours; FIGS. 34 to 37
[5] = tested on: human liver cancer HepG2 cells; experiment: Granule leakage of HepG2 cells exposed to peptides, under a microscope; format: cell-based; conditions: HepG2 cells exposed to peptide
Excerpt: The peptides synthesized above were exposed to human liver cancer HepG2 cells and the leakage of granules under a microscope was studied. […] In view of the above, peptides GT-11258, GT-11261, and GT-11274 were expected to have a relatively strong activity.

| Compound | HepG2 cell killing effect compared with YS12 (Trypan blue positive cells per 1 mm^2) [4] | leakage of granules under a microscope [5] | further results |
| --- | --- | --- | --- |
| CSCC[C@@H]1NC(=O)[C@@H]2CCCN2C(=O)CNC(=O)[C@H](Cc2ccccc2)NC(=O)[C@H](Cc2c[nH]cn2)NC(=O)[C@@H](NC(=O)[C@H](CO)NC(C)=O)CSSC[C@@H](C(=O)N[C@@H](CCCCN)C(N)=O)NC(=O)[C@H](C(C)C)NC(=O)[C@H](Cc2c[nH]c3ccccc23)NC(=O)[C@H]([C@@H](C)O)NC1=O [GT-11269, Ac-SCHFGPMTWVCK-NH2] (Ac-SCHFGPMTWVCK-NH2; disulfide 2-11) | – | – | proliferation inhibiting action against AsPC-1 cells (inhibition ratio against control) ([1]; 10, 30 or 100 μM, FIG. 43): potent proliferation inhibiting action; proliferation inhibiting action on ATL-2 cells (inhibition ratio against control) [2]: potent proliferation inhibiting action; antitumor effect (relative tumor volume) [3]: potent and had an early manifestation of effect |
| (propionyl)-SCHFGPLTWVCK-NH2 (Propionyl-SCHFGPLTWVCK-NH2; disulfide 2-11 (inferred)) [GT-11257] | – | – | proliferation inhibiting action on AsPC-1 cells (inhibition ratio against control) ([1]; 150 μM, FIG. 38): potent proliferation inhibiting action |
| Ac-SCH(3,4-difluoro-Phe)GPLT(2-benzothiazolylalanine)VCK-NH2 (Ac-SCH[Phe(3,4-F2)]GPLT[Ala(benzothiazol-2-yl)]VCK-NH2; disulfide 2-11 (inferred)) [GT-11305] | equivalent or greater than that of YS12 | – | – |
| Ac-SCH(3,4-difluoro-Phe)GPLT(2-quinolylalanine)VCK-NH2 [GT-11304] | equivalent or greater than that of YS12 | – | – |
| Ac-SCH(3,4-difluoro-Phe)GPLT(8-quinolylalanine)VCK-NH2 [GT-11303] | equivalent or greater than that of YS12 | – | – |
| Ac-SCH(m-chloro-Phe)GPLTWVCK-NH2 (Ac-SCH[Phe(3-Cl)]GPLTWVCK-NH2; disulfide 2-11 (inferred)) [GT-11260] | equivalent or greater than that of YS12 | relatively low degree of granule leakage | – |
| Ac-SCH(p-chloro-Phe)GPLTWVCK-NH2 (Ac-SCH[Phe(4-Cl)]GPLTWVCK-NH2; disulfide 2-11 (inferred)) [GT-11259] | equivalent or greater than that of YS12 | relatively low degree of granule leakage | – |
| Ac-SCH(p-fluoro-Phe)GPLT(2-benzothiazolylalanine)VCK-NH2 [GT-11307] | equivalent or greater than that of YS12 | – | – |
| Ac-SCH(p-fluoro-Phe)GPLT(2-quinolylalanine)VCK-NH2 [GT-11306] | equivalent or greater than that of YS12 | – | – |
| Ac-SCH(p-fluoro-Phe)GPLTWVCK-NH2 (Ac-SCH[Phe(4-F)]GPLTWVCK-NH2; disulfide 2-11 (inferred)) [GT-11258] | – | significant granule leakage | – |
| Ac-SCH(phenethylglycine)GPLTWVCK-NH2 (Ac-SCH[phenethylglycine]GPLTWVCK-NH2; disulfide 2-11 (inferred)) [GT-11263] | – | – | antitumor effect (relative tumor volume) [3]: potent antitumor effect |
| Ac-SCHFGPATWVCK-NH2 (disulfide 2-11 (inferred)) [GT-11268] | equivalent or greater than that of YS12 | – | – |
| Ac-SCHFGPLT(8-quinolylalanine)VCK-NH2 (Ac-SCHFGPLT[8‑quinolylalanine]VCK-NH2; disulfide 2-11 (inferred)) [GT-11274] | equivalent or greater than that of YS12 | significant granule leakage | – |
| Ac-SCHYGPLT(2-quinolylalanine)VCK-NH2 (Ac-SCHYGPLT[2‑quinolylalanine]VCK-NH2; disulfide 2-11 (inferred)) [GT-11308] | equivalent or greater than that of YS12 | – | proliferation inhibiting action on ATL-2 cells (inhibition ratio against control) [2]: potent proliferation inhibiting action |
| Ac-SCHYGPLTWVCK-NH2 (disulfide 2-11 (inferred)) [GT-11261] | equivalent or greater than that of YS12 | significant granule leakage | – |
| Ac-kcvwtlGGfhcs-NH2 (Ac-[dK][dC][dV][dW][dT][dL]GG[dF][dH][dC][dS]-NH2; disulfide 2-11 (inferred)) [GT-11280] | equivalent or greater than that of YS12 | – | – |
